Measured values published in ChEMBL document CHEMBL4715724, “Novel 5-substituted-2-anilinoquinolines with 3-(morpholino or 4-methylpiperazin-1-yl)propoxy moiety as broad spectrum antiproliferative agents: Synthesis, cell based assays and kinase screening” (Bioorg Med Chem Lett, 2016).

What was measured:
Format in all cases: functional
[1] = test system: K562; assay: cells; conditions: Homo sapiens, time 48 hrs
Description: Growth inhibition of human K562 cells incubated for 48 hrs by sulforhodamine B assay

[2] = test system: A549; assay: cells; conditions: Homo sapiens, time 48 hrs
Description: Growth inhibition of human A549/ATCC cells incubated for 48 hrs by sulforhodamine B assay

[3] = test system: HOP-62; assay: cells; conditions: Homo sapiens, time 48 hrs
Description: Growth inhibition of human HOP-62 cells incubated for 48 hrs by sulforhodamine B assay

[4] = test system: HOP-92; assay: cells; conditions: Homo sapiens, time 48 hrs
Description: Growth inhibition of human HOP-92 cells incubated for 48 hrs by sulforhodamine B assay

[5] = test system: NCI-H226; assay: cells; conditions: Homo sapiens, time 48 hrs
Description: Growth inhibition of human NCI-H226 cells incubated for 48 hrs by sulforhodamine B assay

[6] = test system: NCI-H23; assay: cells; conditions: Homo sapiens, time 48 hrs
Description: Growth inhibition of human NCI-H23 cells incubated for 48 hrs by sulforhodamine B assay

[7] = test system: NCI-H322M; assay: cells; conditions: Homo sapiens, time 48 hrs
Description: Growth inhibition of human NCI-H322M cells incubated for 48 hrs by sulforhodamine B assay

[8] = test system: NCI-H460; assay: cells; conditions: Homo sapiens, time 48 hrs
Description: Growth inhibition of human NCI-H460 cells incubated for 48 hrs by sulforhodamine B assay

[9] = test system: NCI-H522; assay: cells; conditions: Homo sapiens, time 48 hrs
Description: Growth inhibition of human NCI-H522 cells incubated for 48 hrs by sulforhodamine B assay

[10] = test system: HCT-116; assay: cells; conditions: Homo sapiens, time 48 hrs
Description: Growth inhibition of human HCT-116 cells incubated for 48 hrs by sulforhodamine B assay

[11] = test system: HCT-15; assay: cells; conditions: Homo sapiens, time 48 hrs
Description: Growth inhibition of human HCT-15 cells incubated for 48 hrs by sulforhodamine B assay

[12] = test system: HT-29; assay: cells; conditions: Homo sapiens, time 48 hrs
Description: Growth inhibition of human HT-29 cells incubated for 48 hrs by sulforhodamine B assay

[13] = test system: KM12; assay: cells; conditions: Homo sapiens, time 48 hrs
Description: Growth inhibition of human KM12 cells incubated for 48 hrs by sulforhodamine B assay

[14] = test system: SF-295; assay: cells; conditions: Homo sapiens, time 48 hrs
Description: Growth inhibition of human SF-295 cells incubated for 48 hrs by sulforhodamine B assay

[15] = test system: U-251; assay: cells; conditions: Homo sapiens, time 48 hrs
Description: Growth inhibition of human U-251 cells incubated for 48 hrs by sulforhodamine B assay

[16] = test system: LOX IMVI; assay: cells; conditions: Homo sapiens, time 48 hrs
Description: Growth inhibition of human LOX IMVI cells incubated for 48 hrs by sulforhodamine B assay

[17] = test system: SK-MEL-28; assay: cells; conditions: Homo sapiens, time 48 hrs
Description: Growth inhibition of human SK-MEL-28 cells incubated for 48 hrs by sulforhodamine B assay

[18] = test system: UACC-257; assay: cells; conditions: Homo sapiens, time 48 hrs
Description: Growth inhibition of human UACC-257 cells incubated for 48 hrs by sulforhodamine B assay

[19] = test system: UACC-62; assay: cells; conditions: Homo sapiens, time 48 hrs
Description: Growth inhibition of human UACC-62 cells incubated for 48 hrs by sulforhodamine B assay

[20] = test system: IGROV-1; assay: cells; conditions: Homo sapiens, time 48 hrs
Description: Growth inhibition of human IGROV-1 cells incubated for 48 hrs by sulforhodamine B assay

[21] = test system: OVCAR-3; assay: cells; conditions: Homo sapiens, time 48 hrs
Description: Growth inhibition of human OVCAR-3 cells incubated for 48 hrs by sulforhodamine B assay

[22] = test system: OVCAR-4; assay: cells; conditions: Homo sapiens, time 48 hrs
Description: Growth inhibition of human OVCAR-4 cells incubated for 48 hrs by sulforhodamine B assay

[23] = test system: OVCAR-8; assay: cells; conditions: Homo sapiens, time 48 hrs
Description: Growth inhibition of human OVCAR-8 cells incubated for 48 hrs by sulforhodamine B assay

[24] = test system: A498; assay: cells; conditions: Homo sapiens, time 48 hrs
Description: Growth inhibition of human A498 cells incubated for 48 hrs by sulforhodamine B assay

[25] = test system: RXF 393; assay: cells; conditions: Homo sapiens, time 48 hrs
Description: Growth inhibition of human RXF 393 cells incubated for 48 hrs by sulforhodamine B assay

[26] = test system: TK-10; assay: cells; conditions: Homo sapiens, time 48 hrs
Description: Growth inhibition of human TK-10 cells incubated for 48 hrs by sulforhodamine B assay

[27] = test system: UO-31; assay: cells; conditions: Homo sapiens, time 48 hrs
Description: Growth inhibition of human UO-31 cells incubated for 48 hrs by sulforhodamine B assay

[28] = test system: PC-3; assay: cells; conditions: Homo sapiens, time 48 hrs
Description: Growth inhibition of human PC-3 cells incubated for 48 hrs by sulforhodamine B assay

[29] = test system: MCF7; assay: cells; conditions: Homo sapiens, time 48 hrs
Description: Growth inhibition of human MCF7 cells incubated for 48 hrs by sulforhodamine B assay

[30] = test system: MDA-MB-231; assay: cells; conditions: Homo sapiens, time 48 hrs
Description: Growth inhibition of human MDA-MB-231/ATCC cells incubated for 48 hrs by sulforhodamine B assay

[31] = test system: Hs-578T; assay: cells; conditions: Homo sapiens, time 48 hrs
Description: Growth inhibition of human Hs-578T cells incubated for 48 hrs by sulforhodamine B assay

[32] = test system: MDA-MB-468; assay: cells; conditions: Homo sapiens, time 48 hrs
Description: Growth inhibition of human MDA-MB-468 cells incubated for 48 hrs by sulforhodamine B assay

[33] = test system: Panel leukemia (Carcinoma cell lines); assay: cells; conditions: Homo sapiens, time 48 hrs
Description: Growth inhibition of human Panel leukemia (Carcinoma cell lines) incubated for 48 hrs by sulforhodamine B assay

[34] = cells; conditions: Homo sapiens, Non-small cell lung cancer cell line; time 48 hrs
Description: Growth inhibition of human Non-small cell lung cancer cell line incubated for 48 hrs by sulforhodamine B assay

[35] = test system: Panel colon (Carcinoma cell lines); assay: cells; conditions: Homo sapiens, time 48 hrs
Description: Growth inhibition of human Panel colon (Carcinoma cell lines) incubated for 48 hrs by sulforhodamine B assay

[36] = test system: Panel CNS (Carcinoma cell lines); assay: cells; conditions: Homo sapiens, time 48 hrs
Description: Growth inhibition of human Panel CNS (Carcinoma cell lines) incubated for 48 hrs by sulforhodamine B assay

[37] = test system: Panel melanoma (Carcinoma cell lines); assay: cells; conditions: Homo sapiens, time 48 hrs
Description: Growth inhibition of human Panel melanoma (Carcinoma cell lines) incubated for 48 hrs by sulforhodamine B assay

[38] = test system: Panel ovarian (Carcinoma cell lines); assay: cells; conditions: Homo sapiens, time 48 hrs
Description: Growth inhibition of human Panel ovarian (Carcinoma cell lines) incubated for 48 hrs by sulforhodamine B assay

[39] = test system: Panel renal (Carcinoma cell lines); assay: cells; conditions: Homo sapiens, time 48 hrs
Description: Growth inhibition of human Panel renal (Carcinoma cell lines) incubated for 48 hrs by sulforhodamine B assay

[40] = test system: Panel prostate (Carcinoma cell lines); assay: cells; conditions: Homo sapiens, time 48 hrs
Description: Growth inhibition of human Panel prostate (Carcinoma cell lines) incubated for 48 hrs by sulforhodamine B assay

[41] = test system: Panel breast (Carcinoma cell lines); assay: cells; conditions: Homo sapiens, time 48 hrs
Description: Growth inhibition of human Panel breast (Carcinoma cell lines) incubated for 48 hrs by sulforhodamine B assay

[42] = test system: Panel NCI-60 (60 carcinoma cell lines); assay: cells; conditions: Homo sapiens, time 48 hrs
Description: Growth inhibition of human Panel NCI-60 (60 carcinoma cell lines) incubated for 48 hrs by sulforhodamine B assay

[43] = test system: CCRF-CEM; assay: cells; conditions: Homo sapiens, time 48 hrs
Description: Growth inhibition of human CCRF-CEM cells incubated for 48 hrs by sulforhodamine B assay

[44] = test system: SR; assay: cells; conditions: Homo sapiens, time 48 hrs
Description: Growth inhibition of human SR cells incubated for 48 hrs by sulforhodamine B assay

[45] = test system: SNB-75; assay: cells; conditions: Homo sapiens, time 48 hrs
Description: Growth inhibition of human SNB-75 cells incubated for 48 hrs by sulforhodamine B assay

[46] = read-out: LC50 (the source's name)

## CN1CCN(CCCOc2cccc3nc(Nc4ccc(Cl)c(F)c4)ccc23)CC1
[1]
  GI50: 1470 nM
[2]
  GI50: 1960 nM
[3]
  GI50: 1450 nM
[4]
  GI50: 1330 nM
[5]
  GI50: 2050 nM
[6]
  GI50: 1750 nM
[7]
  GI50: 1700 nM
[8]
  GI50: 1910 nM
[9]
  GI50: 1750 nM
[10]
  GI50: 1560 nM
[11]
  GI50: 1400 nM
[12]
  GI50: 1410 nM
[13]
  GI50: 1770 nM
[14]
  GI50: 1790 nM
[15]
  GI50: 1810 nM
[16]
  GI50: 1640 nM
[17]
  GI50: 1720 nM
[18]
  GI50: 2040 nM
[19]
  GI50: 2050 nM
[20]
  GI50: 1.95 µM
[21]
  GI50: 1700 nM
[22]
  GI50: 3.13 µM
[23]
  GI50: 2.02 µM
[24]
  GI50: 2390 nM
[25]
  GI50: 1960 nM
[26]
  GI50: 1810 nM
[27]
  GI50: 1570 nM
[28]
  GI50: 1760 nM
[29]
  GI50: 1310 nM
[30]
  GI50: 1680 nM
[31]
  GI50: 2120 nM
[32]
  GI50: 1720 nM
[33]
  GI50: 1900 nM
  LC50 (50% lethal concentration): 53.9 µM
  TGI: 4.28 µM
[34]
  GI50: 1750 nM
  LC50 (50% lethal concentration): 9.98 µM
  TGI: 3.88 µM
[35]
  GI50: 1620 nM
  TGI: 3.17 µM
[35]; [46]
  CC50: 6.21 µM
[36]
  GI50: 1740 nM
  TGI: 3.35 µM
[36]; [46]
  CC50: 6.46 µM
[37]
  GI50: 1820 nM
  LC50: 6.77 µM
  TGI: 3.5 µM
[38]
  GI50: 1.99 µM
  LC50: 11.3 µM
  TGI: 4.87 µM
[39]
  GI50: 2220 nM
  LC50 (lethal concentration 50%): 19.8 µM
  TGI: 6.21 µM
[40]
  GI50: 1760 nM
  LC50 (concentration killing 50% of cells): 6.21 µM
  TGI: 2800 nM
[41]
  GI50: 1840 nM
  TGI: 4.5 µM
[41]; [46]
  CC50: 13.2 µM
[42]
  GI50: 1820 nM
  TGI: 3.89 µM
[42]; [46]
  CC50: 9.12 µM

## Fc1cc(Nc2ccc3c(OCCCN4CCOCC4)cccc3n2)ccc1Cl
[43]
  GI50: 2480 nM
[1]
  GI50: 1910 nM
[44]
  GI50: 1690 nM
[2]
  GI50: 2960 nM
[3]
  GI50: 1710 nM
[4]
  GI50: 2400 nM
[5]
  GI50: 2760 nM
[6]
  GI50: 2210 nM
[7]
  GI50: 2530 nM
[8]
  GI50: 3070 nM
[9]
  GI50: 1720 nM
[10]
  GI50: 2760 nM
[11]
  GI50: 1400 nM
[12]
  GI50: 1530 nM
[13]
  GI50: 2300 nM
[14]
  GI50: 1970 nM
[45]
  GI50: 1860 nM
[15]
  GI50: 1850 nM
[16]
  GI50: 1710 nM
[17]
  GI50: 1820 nM
[18]
  GI50: 2180 nM
[19]
  GI50: 2320 nM
[20]
  GI50: 3.19 µM
[21]
  GI50: 3080 nM
[22]
  GI50: 3.75 µM
[23]
  GI50: 4.03 µM
[24]
  GI50: 2420 nM
[25]
  GI50: 2160 nM
[26]
  GI50: 2010 nM
[27]
  GI50: 1650 nM
[28]
  GI50: 2080 nM
[29]
  GI50: 1680 nM
[30]
  GI50: 1530 nM
[31]
  GI50: 2190 nM
[32]
  GI50: 2080 nM
[33]
  GI50: 2180 nM
[34]
  GI50: 2410 nM
[35]
  GI50: 1970 nM
[36]
  GI50: 2160 nM
[37]
  GI50: 2010 nM
[38]
  GI50: 3.07 µM
[39]
  GI50: 2420 nM
[40]
  GI50: 2850 nM
[41]
  GI50: 2480 nM
[42]
  GI50: 2240 nM

## COc1cc2ncnc(Nc3ccc(F)c(Cl)c3)c2cc1OCCCN1CCOCC1 [GEFITINIB]
[33]
  GI50: 3540 nM

## Clc1cc(Cl)cc(Nc2ccc3c(OCCCN4CCOCC4)cccc3n2)c1
[43]
  GI50: 2360 nM
[1]
  GI50: 2210 nM
[2]
  GI50: 2600 nM
[3]
  GI50: 2290 nM
[4]
  GI50: 2030 nM
[5]
  GI50: 3160 nM
[6]
  GI50: 2940 nM
[7]
  GI50: 2510 nM
[8]
  GI50: 2430 nM
[9]
  GI50: 1820 nM
[10]
  GI50: 1820 nM
[11]
  GI50: 1750 nM
[12]
  GI50: 1760 nM
[13]
  GI50: 2000 nM
[14]
  GI50: 1920 nM
[15]
  GI50: 1980 nM
[16]
  GI50: 1720 nM
[17]
  GI50: 1650 nM
[18]
  GI50: 2050 nM
[19]
  GI50: 2010 nM
[20]
  GI50: 3.9 µM
[21]
  GI50: 2920 nM
[22]
  GI50: 10.3 µM
[23]
  GI50: 3.54 µM
[24]
  GI50: 2390 nM
[25]
  GI50: 2260 nM
[26]
  GI50: 2380 nM
[27]
  GI50: 1510 nM
[28]
  GI50: 1940 nM
[29]
  GI50: 1740 nM
[30]
  GI50: 1800 nM
[31]
  GI50: 2510 nM
[32]
  GI50: 2080 nM
[33]
  GI50: 2350 nM
[34]
  GI50: 2530 nM
[35]
  GI50: 1830 nM
[36]
  GI50: 2180 nM
[37]
  GI50: 3020 nM
[38]
  GI50: 4.02 µM
[39]
  GI50: 3960 nM
[40]
  GI50: 2490 nM
[41]
  GI50: 3330 nM
[42]
  GI50: 2570 nM
